Test results as given in PMC8382222, “Easy Surface Functionalization and Bioconjugation of Peptides as Capture Agents of a Microfluidic Biosensing Platform for Multiplex Assay in Serum” (Bioconjugate Chemistry, 2021).
Positions of bridges follow the written chain, without caps; N, C: chain ends. Residues, ends and D or L forms follow the SMILES beside them.

Legend:
[1] = molecular target: T1, VEGF protein (Homo sapiens, UniProt P15692); experiment: One-step injection SPR (Taylor dispersion), VEGF immobilized; assay type: binding
T1 construct: purchased Peprotech
T1 sequence (P15692 1-191 isoform P15692-4): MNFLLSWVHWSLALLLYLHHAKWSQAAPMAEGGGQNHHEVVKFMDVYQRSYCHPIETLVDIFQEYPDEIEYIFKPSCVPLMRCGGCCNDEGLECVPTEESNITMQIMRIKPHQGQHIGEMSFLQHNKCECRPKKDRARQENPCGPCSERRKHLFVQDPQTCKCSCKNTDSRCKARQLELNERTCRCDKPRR
Description: (§1) SPR experiments were performed by one-step injection with the aim of evaluating and confirming the binding constant between peptide and biomarkers. Analyte concentrations of 30 μM of VEFG-114 peptide and 245 μM of CRP-1 peptide were used. The one-step experiment was based on the Taylor dispersion theory, so a unique concentration of peptide was dispersed into a running buffer directly in the flow cell in order to have a final sigmoidal profile.[41],[42] […] For the G6 peptide, the affinity against the TNFα protein was previously estimated by our research group in a recent study (data not shown).[18]
Reagents for peptide synthesis (Fmoc-protected amino acids, resins, activation, and deprotection reagents) were purchased from Iris Biotech GmbH (Waldershofer Str. 49–51, 95615); EDC/NHS, PDMS, and CRP (C- Reactive Protein) were from Sigma-Aldrich. VEGF (Recombinant Human VEGF165) was purchased from Peprotech. Anti-CRP (Anti-C Reactive Protein antibody (FITC) (ab19174)) and Anti-VEGF (Anti-Recombinant Human VEGF antibody (FITC)) were from Abcam. TNF-α and Anti-TNF-α (Anti-Tumor Necrosis Factor-α antibody (FITC)) were from Prospec. Solvents for peptide synthesis and HPLC analyses were purchased from Sigma-Aldrich; reversed-phase columns for peptide analysis and the LC–MS system were supplied, respectively, from Agilent Technologies and Waters (Milan, Italy). […]

[2] = molecular target: T2, CRP protein (Homo sapiens, UniProt P02741); experiment: One-step injection SPR (Taylor dispersion), CRP immobilized; assay type: binding
T2 construct: purchased Sigma-Aldrich
T2 sequence (P02741 19-224): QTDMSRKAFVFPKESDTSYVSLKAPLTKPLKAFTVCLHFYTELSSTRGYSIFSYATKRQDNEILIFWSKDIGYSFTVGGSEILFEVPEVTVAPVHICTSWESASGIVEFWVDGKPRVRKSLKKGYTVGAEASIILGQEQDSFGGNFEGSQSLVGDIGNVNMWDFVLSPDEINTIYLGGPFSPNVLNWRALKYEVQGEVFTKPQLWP
Description: as §1
SPR experiments were performed by one-step injection. VEGF and CRP protein were immobilized at a concentration of 100 μg/mL in a 10 mM acetate buffer pH 4.5 and 3.5, respectively, (flow 10 μL/min, injection time 20 min) on a COOH1 SensiQ sensor chip, using EDC/NHS chemistry (0.4 M EDC/0.1 M NHS, flow 25 μL/min, injection time 4 min), achieving an 800 RU signal. Groups of reactive residues were deactivated by treatment with ethanolamine hydrochloride 1 M, pH 8.5. The reference channel was prepared by activation with EDC/NHS and deactivation with ethanolamine. Analyte concentrations of 30 μM for VEFG-114 peptide and 245 μM for CRP-1 peptide were used with a flow rate of 100 μL min^–1 and a 300 s dissociation time. […]

Row | Structure (SMILES) | dissociation value (in words) ([1]; 30 μM peptide, 1:1 interaction model) | Kd ([1]; VEGF immobilized at 100 μg/mL (10 mM acetate pH 4.5) on COOH1 SensiQ chip, 30 μM VEGF-114 analyte, 100 μL/min, 300 s dissociation, 1:1 binding model, QDAT, mean ± SD) | dissociation value (in words) ([2]; 245 μM CRP-1 peptide, 1:1 interaction model) | Kd ([2]; CRP immobilized at 100 μg/mL (10 mM acetate pH 3.5) on COOH1 SensiQ chip, 245 μM CRP-1 analyte, 100 μL/min, 300 s dissociation, 1:1 binding model, QDAT, mean ± SD)
1 | CC[C@H](C)[C@@H]1NC(=O)[C@H](CC(=O)O)NC(=O)[C@@H](NC(=O)[C@H](CC(N)=O)NC(=O)[C@@H]2CCCN2C(=O)[C@H](CCC(=O)O)NC(=O)[C@@H](N)C(C)C)CSSC[C@@H](C(=O)N[C@@H](Cc2ccccc2)C(=O)N[C@@H](CCC(=O)O)C(=O)N[C@@H](CCCNC(=N)N)C(=O)N[C@@H](CC(C)C)C(N)=O)NC(=O)[C@H](CCC(=O)O)NC(=O)[C@H](Cc2c[nH]c3ccccc23)NC(=O)[C@H](CCC(=O)O)NC(=O)[C@H](Cc2c[nH]c3ccccc23)NC(=O)[C@H](CCSC)NC(=O)[C@H](C(C)C)NC(=O)[C@H](Cc2c[nH]cn2)NC1=O [VEGF-114] (H-VEPNCDIHVMWEWECFERL-NH2; disulfide 5-15) | low micromolar | 10 ± 0.7 µM |  | 
2 | CC(C)C[C@H](NC(=O)[C@H](CCC(N)=O)NC(=O)[C@@H]1CSSC[C@H](NC(=O)[C@H](C)NC(=O)[C@H](Cc2c[nH]c3ccccc23)NC(=O)[C@@H](N)CCC(=O)O)C(=O)N[C@@H](CC(N)=O)C(=O)N[C@@H](CC(=O)O)C(=O)N[C@@H](CCCNC(=N)N)C(=O)NCC(=O)N[C@@H](Cc2ccccc2)C(=O)N[C@@H](CC(N)=O)C(=O)N1)C(=O)N[C@@H](CCC(N)=O)C(=O)N[C@@H](CCCNC(=N)N)C(N)=O [CRP-1] (H-EWACNDRGFNCQLQR-NH2; disulfide 4-11) |  |  | low micromolar | 12 ± 0.1 µM
